# Patent US11339372B2, “Serum-free medium inducing differentiation of umbilical cord mesenchymal stem cell into insulin-secretion-like cell and preparation method and use thereof” (SCLNOW BIOTECHNOLOGY CO., LTD, priority 2016, dated 2022)
# Tested on: Human umbilical cord mesenchymal stem cells
# Experiment: Screening for the content of conophylline in the medium: differentiation induction, cell cluster morphology
# Assay type: cell-based
# Method: Media to be tested: 89 parts by volume of DMEM (High Glucose, with 4.5 g/L glucose), 5 parts by volume of serum replacement (SR), 2 parts by volume of B27 (50×), 1 part by volume of ITS, 1 part by volume of non-essential amino acids (NEAA), 1 part by volume of N-2 (100×), and heparin in a final concentration of 1 μg/ml, 10 mmol/L nicotinamide, and recombinant human basic fibroblast growth factor (b-FGF), epidermal growth factor (EGF), hepatocyte growth factor (HGF) and pentagastrin each in a final concentration of 10 ng/ml, and conophylline with a concentration of 1, 10, 50, 100, 200, and 300 ng/ml respectively.
# Human umbilical cord mesenchymal stem cells were induced to differentiate through being cultured in the above media comprising different concentrations of conophylline respectively.
compound,measurement,setting,value
CC[C@@]12CC(C(=O)OC)=C3Nc4cc5c(cc4[C@@]34CCN(C[C@H]3O[C@H]31)[C@@H]24)[C@@H]1[C@H](O5)[C@@H](O)[C@@]2(CC)CC(C(=O)OC)=C3Nc4c(cc(O)c(OC)c4OC)[C@@]34CCN1[C@@H]24 [conophylline],state of cell clusters,medium with 1 ng/ml conophylline,the maturity of the cell clusters was insufficient
same,state of cell clusters,medium with 10 ng/ml conophylline,the maturity of the cell clusters was insufficient
same,state of cell clusters,medium with 50 ng/ml conophylline,cell clusters were compact and grew gradually
same,state of cell clusters,medium with 100 ng/ml conophylline,cell clusters were compact and grew gradually
same,state of cell clusters,medium with 200 ng/ml conophylline,cell clusters were compact and grew gradually
same,state of cell clusters,medium with 300 ng/ml conophylline,the differentiated cells had undergone an undirected differentiation
